The values that follow come from ChEMBL document CHEMBL5154638, “Molecular Plasticity of Crystalline CK2α' Leads to KN2, a Bivalent Inhibitor of Protein Kinase CK2 with Extraordinary Selectivity” (J Med Chem, 2022).

In one data set the test system is HeLa. The data set is described as follows: cells. Particulars: Homo sapiens, 24 h.
The nature of the next data set: in vitro. Particulars: human, HEK293 cells.

`O=C(CCC(=O)NCCc1ccc(Cl)c(Cl)c1)NCCCCn1cnc2c(Br)c(Br)c(Br)c(Br)c21`: it took 6.19 µM to reach a half-maximal effect in the data set on HeLa (EC50). In the data set “in vitro”, this compound displayed an EC50 at 24 h of 15.9 µM.
Take `O=C(O)c1ccc2c(c1)nc(Nc1cccc(Cl)c1)c1ccncc12` [SILMITASERTIB]: the EC50 in the data set with HeLa was found to be 2.1 µM.
